From paper PMC7846792, “Perception of a divergent family of phytocytokines by the Arabidopsis receptor kinase MIK2” (Nature Communications, 2021)
No end group written: not given here.

How the values were obtained:
[1] = biological target: MIK2 ectodomain (MIK2^ECD, residues 1–709) (Arabidopsis thaliana) (UniProt Q8VZG8); assay: ITC; 200 μM SCOOP12 in the syringe injected into 20 μM MIK2 ectodomain in the cell; 25 °C; 20 mM sodium citrate pH 5.0, 150 mM NaCl; N fitted to 1
A. thaliana seedlings = assay: Seedling growth inhibition (fresh weight); format: in vivo, Arabidopsis thaliana; details: mock mean = 1
Procedure: Four-day-old seedlings growing on MS plates were transferred individually into separate wells of transparent 48-well tissue culture plates (Greiner Bio-One) containing 500 μL of liquid MS media with/without elicitor addition. The plates were then transferred back to the growth conditions for an additional 10 days before seedlings were blot-dried and weighed.

Chain of MIK2 ectodomain (MIK2^ECD, residues 1–709) (Arabidopsis thaliana) (Q8VZG8 44-709): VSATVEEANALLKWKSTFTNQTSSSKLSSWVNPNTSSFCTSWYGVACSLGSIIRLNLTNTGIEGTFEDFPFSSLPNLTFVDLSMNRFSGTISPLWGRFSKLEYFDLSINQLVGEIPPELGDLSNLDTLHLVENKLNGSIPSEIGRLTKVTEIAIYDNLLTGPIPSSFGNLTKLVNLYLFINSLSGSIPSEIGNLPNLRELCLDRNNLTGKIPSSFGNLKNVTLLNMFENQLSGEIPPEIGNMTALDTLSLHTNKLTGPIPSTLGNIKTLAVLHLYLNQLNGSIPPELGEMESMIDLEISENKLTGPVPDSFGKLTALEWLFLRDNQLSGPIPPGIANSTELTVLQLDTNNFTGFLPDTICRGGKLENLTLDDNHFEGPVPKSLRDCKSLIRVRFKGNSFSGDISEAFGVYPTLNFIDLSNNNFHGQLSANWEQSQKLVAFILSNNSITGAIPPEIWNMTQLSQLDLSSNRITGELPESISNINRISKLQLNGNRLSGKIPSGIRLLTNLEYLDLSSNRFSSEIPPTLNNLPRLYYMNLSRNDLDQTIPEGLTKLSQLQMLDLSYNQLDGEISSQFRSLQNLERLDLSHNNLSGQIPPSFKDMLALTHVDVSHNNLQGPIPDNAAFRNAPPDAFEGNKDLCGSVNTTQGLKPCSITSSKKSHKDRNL

SERINE RICH ENDOGENOUS PEPTIDE 12 (SCOOP12) synthetic peptide
Kd [1]: 4.6 µM

PVRSSRSPRSPSF [SCOOP2]
Seedling fresh weight (Fig3C), relative to mock (A. thaliana seedlings; Col-0, 1 μM, replicate 1): 1.166 | Seedling fresh weight (Fig3C), relative to mock (A. thaliana seedlings; Col-0, 1 μM, replicate 2): 0.8827 | Seedling fresh weight (Fig3C), relative to mock (A. thaliana seedlings; Col-0, 1 μM, replicate 3): 1.02 | Seedling fresh weight (Fig3C), relative to mock (A. thaliana seedlings; Col-0, 1 μM, replicate 4): 1.184 | Seedling fresh weight (Fig3C), relative to mock (A. thaliana seedlings; Col-0, 1 μM, replicate 5): 0.971 | Seedling fresh weight (Fig3C), relative to mock (A. thaliana seedlings; Col-0, 1 μM, replicate 6): 0.6909 | Seedling fresh weight (Fig3C), relative to mock (A. thaliana seedlings; Col-0, 1 μM, replicate 7): 0.9497 | Seedling fresh weight (Fig3C), relative to mock (A. thaliana seedlings; Col-0, 1 μM, replicate 8): 0.9771 | Seedling fresh weight (Fig3C), relative to mock (A. thaliana seedlings; Col-0, 1 μM, replicate 9): 0.9071 | Seedling fresh weight (Fig3C), relative to mock (A. thaliana seedlings; Col-0, 1 μM, replicate 10): 0.9253 | Seedling fresh weight (Fig3C), relative to mock (A. thaliana seedlings; Col-0, 1 μM, replicate 11): 0.8736 | Seedling fresh weight (Fig3C), relative to mock (A. thaliana seedlings; Col-0, 1 μM, replicate 12): 0.9892 | Seedling fresh weight (Fig3C), relative to mock (A. thaliana seedlings; Col-0, 10 μM, replicate 1): 0.6187 | Seedling fresh weight (Fig3C), relative to mock (A. thaliana seedlings; Col-0, 10 μM, replicate 2): 0.9067 | Seedling fresh weight (Fig3C), relative to mock (A. thaliana seedlings; Col-0, 10 μM, replicate 3): 0.8218 | Seedling fresh weight (Fig3C), relative to mock (A. thaliana seedlings; Col-0, 10 μM, replicate 4): 0.6399 | Seedling fresh weight (Fig3C), relative to mock (A. thaliana seedlings; Col-0, 10 μM, replicate 5): 0.5307 | Seedling fresh weight (Fig3C), relative to mock (A. thaliana seedlings; Col-0, 10 μM, replicate 6): 0.5914 | Seedling fresh weight (Fig3C), relative to mock (A. thaliana seedlings; Col-0, 10 μM, replicate 7): 0.649 | Seedling fresh weight (Fig3C), relative to mock (A. thaliana seedlings; Col-0, 10 μM, replicate 8): 0.6005 | Seedling fresh weight (Fig3C), relative to mock (A. thaliana seedlings; Col-0, 10 μM, replicate 9): 0.5337 | Seedling fresh weight (Fig3C), relative to mock (A. thaliana seedlings; Col-0, 10 μM, replicate 10): 0.555 | Seedling fresh weight (Fig3C), relative to mock (A. thaliana seedlings; Col-0, 10 μM, replicate 11): 0.7005 | Seedling fresh weight (Fig3C), relative to mock (A. thaliana seedlings; Col-0, 10 μM, replicate 12): 0.6793 | Seedling fresh weight (Fig3C), relative to mock (A. thaliana seedlings; mik2-1, 1 μM, replicate 1): 0.8038 | Seedling fresh weight (Fig3C), relative to mock (A. thaliana seedlings; mik2-1, 1 μM, replicate 2): 0.7937 | Seedling fresh weight (Fig3C), relative to mock (A. thaliana seedlings; mik2-1, 1 μM, replicate 3): 1.093 | Seedling fresh weight (Fig3C), relative to mock (A. thaliana seedlings; mik2-1, 1 μM, replicate 4): 1.0157 | Seedling fresh weight (Fig3C), relative to mock (A. thaliana seedlings; mik2-1, 1 μM, replicate 5): 1.096 | Seedling fresh weight (Fig3C), relative to mock (A. thaliana seedlings; mik2-1, 1 μM, replicate 6): 0.8812 | Seedling fresh weight (Fig3C), relative to mock (A. thaliana seedlings; mik2-1, 1 μM, replicate 7): 0.972 | Seedling fresh weight (Fig3C), relative to mock (A. thaliana seedlings; mik2-1, 1 μM, replicate 8): 0.898 | Seedling fresh weight (Fig3C), relative to mock (A. thaliana seedlings; mik2-1, 1 μM, replicate 9): 1.0157 | Seedling fresh weight (Fig3C), relative to mock (A. thaliana seedlings; mik2-1, 1 μM, replicate 10): 1.002 | Seedling fresh weight (Fig3C), relative to mock (A. thaliana seedlings; mik2-1, 1 μM, replicate 11): 1.083 | Seedling fresh weight (Fig3C), relative to mock (A. thaliana seedlings; mik2-1, 1 μM, replicate 12): 1.063 | Seedling fresh weight (Fig3C), relative to mock (A. thaliana seedlings; mik2-1, 10 μM, replicate 1): 1.068 | Seedling fresh weight (Fig3C), relative to mock (A. thaliana seedlings; mik2-1, 10 μM, replicate 2): 1.011 | Seedling fresh weight (Fig3C), relative to mock (A. thaliana seedlings; mik2-1, 10 μM, replicate 3): 0.7743 | Seedling fresh weight (Fig3C), relative to mock (A. thaliana seedlings; mik2-1, 10 μM, replicate 4): 0.9434 | Seedling fresh weight (Fig3C), relative to mock (A. thaliana seedlings; mik2-1, 10 μM, replicate 5): 0.8859 | Seedling fresh weight (Fig3C), relative to mock (A. thaliana seedlings; mik2-1, 10 μM, replicate 6): 0.8014 | Seedling fresh weight (Fig3C), relative to mock (A. thaliana seedlings; mik2-1, 10 μM, replicate 7): 1.0279 | Seedling fresh weight (Fig3C), relative to mock (A. thaliana seedlings; mik2-1, 10 μM, replicate 8): 1.092 | Seedling fresh weight (Fig3C), relative to mock (A. thaliana seedlings; mik2-1, 10 μM, replicate 9): 1.001 | Seedling fresh weight (Fig3C), relative to mock (A. thaliana seedlings; mik2-1, 10 μM, replicate 10): 0.9772 | Seedling fresh weight (Fig3C), relative to mock (A. thaliana seedlings; mik2-1, 10 μM, replicate 11): 1.058 | Seedling fresh weight (Fig3C), relative to mock (A. thaliana seedlings; mik2-1, 10 μM, replicate 12): 1.106
